# US20240398822A1, “METHODS AND COMPOSITIONS FOR TREATING AND MANAGING ALZHEIMER'S DISEASE” (Pharmatrophix, Inc., priority 2021, published 2024)
# Assay: Phase 1 SAD/MAD pharmacokinetics
# Format: in vivo
# From the text: The phase 1 study was placebo controlled and double blinded and included 52 subjects in SAD studies and 20 subjects in MAD studies.
structure (smiles),measurement,setting,value
"NCCN1CCOCC1 [aminoethyl morpholine metabolite, aminoethyl morpholine]",food effect,"elderly adults, fed versus fasted",apparent food effect
same,pharmacokinetics after single oral doses,exposure proportional to dose over 100-900 mg of free base,linear pharmacokinetics
same,time to reach steady state upon multiple dosing,in vivo,approximately 5 days post dose
